The source of these data is patent publication US9174960B2, “Compounds useful against kinetoplastideae parasites” (CENTRE NATIONAL DE LA RECHERCHE SCIENTIFIQUE, priority 2009, dated 2015).

The nature of data set [1]: Stability of the compound (HPLC analysis, light). In kind it is physicochemical.
The subject of data set [2] is Leishmania infantum MHOM/MA (BE)/67 strain. Briefly: In vitro Leishmania infantum assay, intracellular amastigotes in primary peritoneal mouse macrophages. It counts as cell-based. The settings on record: L. infantum amastigotes in mouse macrophages, 5 d incubation, reference drug, read-out: IC50 (50% inhibitory concentration), reduction in parasite burden. The method, then: (§1) The Leishmania infantum MHOM/MA (BE)/67 strain is used. The strain is maintained in the Golden Hamster and spleen amastigotes are collected for preparing infection inocula. Primary peritoneal mouse macrophages are used as host cell and are collected 2 d after peritoneal stimulation with a 2% potato starch suspension. […] After 5 d incubation, parasite burdens (mean number of amastigotes/macrophage) are microscopically assessed after Giemsa staining.

A further data set concerns MRC-5SV2 cells. The data set can be described thus: Cytotoxicity against human cell lines (resazurin). The settings on record: human lung fibroblasts MRC-5.
For data set [3], the system named is Trypanosoma brucei brucei Squib 427 strain (suramin-sensitive). The data set can be described thus: In vitro Trypanosoma brucei brucei growth assay (resazurin). It counts as cell-based. The procedure: The strain is maintained in Hirumi (HMI-9) medium, supplemented with 10% FCSi. […] After 3 d incubation, parasite growth is assessed fluorimetrically after addition of resazurin. After 24 h at 37° C., fluorescence is measured (λex 550 nm, λem 590 nm).
Background: The colour change of resazurin is a common sign of viable cells or microbes.

In data set [4] the test system is Primary peritoneal mouse macrophages. The data set can be described thus: Toxicity against mouse macrophages (host cells of the L. infantum assay). It counts as cell-based. The settings on record: mouse macrophages (L. inf). The procedure: as §1
Data set [5] concerns Trypanosoma cruzi, Tulahuen CL, β galactosidase strain (nifurtimox-sensitive). Briefly: In vitro Trypanosoma cruzi assay on MRC-5 cells (CPRG). It counts as cell-based. The settings on record: for trypanocidal activity against T. cruzi (in words): in vitro. The method, then: Trypanosoma cruzi, Tulahuen CL, β galactosidase strain (nifurtimox-sensitive) is used. The strain is maintained on MRC-5SV2 (human lung fibroblast) cells in MEM medium, supplemented with […] L-glutamine, 16.5 mM NaHCO3, and 5% FCSi. All cultures and assays are conducted at 37° C. under an atmosphere of 5% CO2. Assays are performed in sterile 96-well microtiter plates, each well containing 10 μl of the watery compound dilutions together with 190 μl of MRC-5 cell/parasite inoculum (2·10^4 cells/ml±2·10^5 parasites/ml). Parasite growth is compared to untreated-infected controls (100% growth) and non-infected controls (0% growth) after 7 d incubation. Parasite burdens are assessed after adding the substrate CPRG (chlorophenolred β-D-galactopyranoside): 50 μl/well of a stock solution containing 15.2 mg CPRG+250 μl Nonidet in 100 ml PBS. The change in color is measured spectrophotometrically at 540 nm after 4 h incubation at 37° C.

The test system of data set [6] is Trypanosoma brucei brucei CMP (fast strain). Briefly: Trypanocidal activity in vivo in T. brucei-infected mice. The settings on record: T. brucei-infected Swiss mice. The procedure:
Animals: Swiss mice (female 18-20 g, Janvier, Le Genest St Isle, France) are randomly allocated to groups of 6 animals each. Drinking water and food are available ad libitum throughout the experiment (except when the treatment is given by oral route; in this condition, the treatment is given after 12 h of animal fasting).
Parasite: Trypanosoma brucei brucei CMP (fast strain) is maintained in the laboratory by mechanical intraperitoneal sub-passage every three days in Swiss mice. The infection inoculum is prepared by taking blood collected from a clinically ill donor mouse and diluted in pH 7.2 PBS to obtain an infection inoculum of about 10^5 trypanosomes/ml suspension. Mice are infected by intraperitoneal injection of 0.1 ml of parasite suspension (=10^4 parasites).
Test substances: The reference compound is melarsoprol.
Test compounds are analytically pure compounds.
Formulations: The compounds are formulated in 100% DMSO. Clear solutions should be obtained. The stock solution is divided in aliquots and stored at −20° C. until use. Aliquots are thawed immediately before treatment. The reference compound melarsoprol is formulated in PBS and stored at −20° C.
Treatment: The first dosing with the test compounds was given approx. 3 hours after artificial infection. • Melarsoprol (Arsobal®): 6 infected mice intraperitoneally treated with 1 mg/kg×4 consecutive days. • Test compounds: 6 infected mice per AMTD×1-5 consecutive days. • Controls: 10 infected mice receiving vehicle only (0.1-0.2 ml) Evaluation Parameters:
Parasitemia was checked microscopically from blood collected at the tail of the mice 2 days after the treatment, and every two days until 30 days post-treatment in case of survival. The trypanocidal activity was evaluated by the mean survival time of treated mice for each dose comparatively to survival time of mice treated with the vehicle alone. Treatment was considered to be successful when the mean survival time exceeds 30 days and the mice remains aparasitemic. […] Cure rate are expressed as percentages.

In data set [7] the test system is procyclic forms of T. b. brucei. The settings on record: cited from earlier work.
The subject of data set [8] is bloodstream forms of T. brucei. The settings on record: cited from earlier work.
In data set [9] the test system is promastigotes of L. major. The settings on record: cited from earlier work.
For data set [10], the system named is human African trypanosomiasis (HAT). The settings on record: cited from earlier work.
[11] abbreviates: one single dose at 50 mg/kg i.p.

Counter-ions that a name gives are not always drawn. Like-named read-outs stand apart in the source and are kept apart here.

`COc1cc(Br)c(O)c(/C=C/C(=O)/C=C/c2cc(OC)cc(Br)c2O)c1` [NW326.4, (1E,4E)-1,5-Bis(3-bromo-2-hydroxy-5-methoxyphenyl)penta-1,4-dien-3-one] had a decomposition in data set [1] (HPLC analysis, after 5 days) of 60%.

`O=C(O)[C@@H]1[O][Sb](=[O])([O][Sb]2(=[O])[O][C@H]([C@H](O)CO)[C@H](O)[C@H](C(=O)O)[O]2)[O][C@H]([C@H](O)CO)[C@@H]1O.[Na+].[Na+].[Na+]` (some centres unmarked) [Pentostam]: the IC50 in data set [2] was found to be 6.8 ± 0.9 µM.

For `O=C(/C=C/c1ccc(O)c(OC(F)(F)F)c1)/C=C/c1ccc(O)c(OC(F)(F)F)c1` [NW317, (1E,4E)-1,5-Bis(4-hydroxy-3-(trifluoromethoxy)phenyl)penta-1,4-dien-3-one], the “light sensitivity (in words)” value in data set [1] was “Light-sensitive”.

`CCCCCCCCCCCCCCCCOP(=O)([O-])OCC[N+](C)(C)C` [miltefosine]: in [2] (Leishmania infantum, Macrophage, 120 h), the IC50 was 5.2 ± 0.8 µM.

Take `CN1C(c2ccccc2)CC(=O)CC1c1ccccc1` (stereo not drawn) [NW249.1, meso-1-Methyl-2,6-diphenyl-piperidin-4-one]: in the data set on MRC-5SV2 cells, the “toxicity against mammalian (MRC-5) cells (in words)” value (shortened to “toxicity against mammalian”) was “low toxicity”. The “trypanocidal activity against T. brucei (in words)” value in [3] was “high trypanocidal activity”. In addition, the “toxicity against mouse macrophages (in words)” value in [4] is “without any toxicity”.

Consider `O=C(/C=C/c1ccc(C(F)(F)F)cc1)/C=C/c1ccc(C(F)(F)F)cc1` [NW267, (1E,4E)-1,5-Bis(4-trifluoromethyl-phenyl)-penta-1,4-dien-3-one], for which the “toxicity against mammalian” value in the data set with MRC-5SV2 cells is on record as “without any toxicity”. The “trypanocidal activity against T. brucei (in words)” value in [3] is “excellent antitrypanosomal activities”. In addition, in data set [4], the “toxicity against mouse macrophages (in words)” value is on record as “without any toxicity”. For the same compound, the “trypanocidal activity against T. cruzi (in words)” value in data set [5] is “excellent antitrypanosomal activities”.

Turning to `O=C1C[C@H](c2ccncc2)S[C@@H](c2ccncc2)C1` (relative stereo) [TG003A23, trans-2,6-di(pyridin-4-yl)dihydro-2H-thiopyran-4(3H)-one], the “toxicity against mammalian” value in the data set on MRC-5SV2 cells is “much less cytotoxicity”. Moreover, in data set [4], the “toxicity against mouse macrophages (in words)” value is recorded as “much less cytotoxicity”.

As to `O=C(/C=C/c1ccncc1)/C=C/c1ccncc1` [NW319, (1E,4E)-1,5-Di(pyridin-4-yl)penta-1,4-dien-3-one Dihydrochloride], the “toxicity against mammalian” value in the data set with MRC-5SV2 cells is recorded as “high cytotoxicity”. The “trypanocidal activity against T. brucei (in words)” value in [3] was “excellent trypanocidal activity”. The “trypanocidal activity against T. cruzi (in words)” value in data set [5] is “excellent trypanocidal activity”. Also, the parasitemia in data set [6] (setting [11]) is reported as 0%; in data set [6] (two doses over a two days-period, 12.5 mg/kg i.p.), 0%.

Turning to `CN1C(c2ccncc2)CC(=O)CC1c1ccncc1` (centres unmarked) [BJ591, 1-Methyl-2,6-di(pyridine-4-yl)piperidin-4-one], the “toxicity against mammalian” value in the data set on MRC-5SV2 cells was “much less cytotoxicity”. Further, the “toxicity against mouse macrophages (in words)” value in data set [4] was “much less cytotoxicity”.

In the case of `COc1cc(/C=C/C(=O)CC(=O)/C=C/c2ccc(O)c(OC)c2)ccc1O` [Curcumin], the LD50 in data set [7] is 46.5 ± 4.9 µM; in data set [9], 37.6 ± 3.5 µM. In addition, the “cytotoxicity against bloodstream forms of T. brucei relative to procyclic forms” value in data set [8] is recorded as 10 times.

As to `COc1ccc(O)c(/C=C/C(=O)/C=C/c2cc(OC)ccc2O)c1` [NW327.2, (1E,4E)-1,5-Bis(2-hydroxy-5-methoxyphenyl)penta-1,4-dien-3-one], the parasitemia in [6] (setting [11]) was 0%; in [6] (two doses over a two days-period, 25 mg/kg i.p.), 0%.

For `N#Cc1ccc(/C=C/C(=O)/C=C/c2ccc(C#N)cc2)cc1` [NW307.2, (1E,4E)-1,5-Bis(4-cyanophenyl)penta-1,4-dien-3-one], the “toxicity against mammalian” value with MRC-5SV2 cells is “without any cytotoxicity”. Also, the “trypanocidal activity against T. brucei (in words)” value in data set [3] is recorded as “excellent activity”. Besides, the “trypanocidal activity against T. cruzi (in words)” value in data set [5] is “excellent activity”.

As for `O=C(/C=C/c1ccccn1)/C=C/c1ccccn1` [BJ621], the “toxicity against mammalian” value with MRC-5SV2 cells is recorded as “high cytotoxicity”. In addition, the “trypanocidal activity against T. brucei (in words)” value in data set [3] is “excellent trypanocidal activity”. In data set [5], the “trypanocidal activity against T. cruzi (in words)” value is reported as “excellent trypanocidal activity”.

In the case of `CC1CS(=O)(=O)CCN1/N=C/c1ccc([N+](=O)[O-])o1` (centres unmarked) [Nifurtimox, reference compound], the IC50 in data set [5] (Trypanosoma cruzi, MRC5, 168 h, T. cruzi Tulahuen CL on MRC-5 cells, 7 d incubation, reference drug, read-out: IC50, reduction in parasite burdens) was 0.845 ± 0.2 µM.

For the compound `COc1cc(/C=C/C(=O)/C=C/c2ccc(O)c(OC)c2)ccc1O` [NW300, (1E,4E)-1,5-Bis(4-hydroxy-3-methoxyphenyl)penta-1,4-dien-3-one], the “toxicity against mammalian” value in the data set on MRC-5SV2 cells is on record as “very high cytotoxicity”. Further, the “trypanocidal activity against T. brucei (in words)” value in data set [3] is on record as “excellent antitrypanosomal activity”.

In the case of `O=C(/C=C/c1cccnc1)/C=C/c1cccnc1` [NW321, (1E,4E)-1,5-Di(pyridin-3-yl)penta-1,4-dien-3-one Dihydrochloride], the “toxicity against mammalian” value in the data set with MRC-5SV2 cells is given as “high cytotoxicity”. For the same compound, in [3], the “trypanocidal activity against T. brucei (in words)” value was “excellent trypanocidal activity”. Moreover, the “trypanocidal activity against T. cruzi (in words)” value in data set [5] is “excellent trypanocidal activity”. The compound also showed a parasitemia in data set [6] (setting [11]) of 0%.

Consider `Nc1nc(N)nc(Nc2ccc([As]3SCC(CO)S3)cc2)n1` (centres unmarked) [melarsoprol], for which the “failure rate after treatment” value in data set [10] (late stage case of human African trypanosomiasis) is on record as “under 7%”. Further, the “overall mortality due to the drug itself” value in data set [10] (therapy of late-stage encephalitic disease, patients) is “more than 5%”.

`O=C(/C=C/c1ccc(OC(F)(F)F)cc1)/C=C/c1ccc(OC(F)(F)F)cc1` [NW254, (1E,4E)-1,5-Bis(4-trifluoromethoxy-phenyl)-penta-1,4-dien-3-one]: the “toxicity against mammalian” value in the data set with MRC-5SV2 cells was “without any toxicity”. For the same compound, in data set [3], the “trypanocidal activity against T. brucei (in words)” value is “excellent antitrypanosomal activities”. The “toxicity against mouse macrophages (in words)” value in [4] was “without any toxicity”. Further, the “trypanocidal activity against T. cruzi (in words)” value in [5] was “excellent antitrypanosomal activities”.
